Columns and labels:
[1] = tested on: organotypic hippocampal brain slices with IAA lesion; test: Organotypic brain slices, iodoacetic acid injury: cell survival (MTT); format: cell-based, mouse; settings: SND118 10 and 30 μM; SND124 30 μM; 7,8 DHF 10 μm; IAA 250 μM for 110 min
Method: (§1) Preparation of the organotypic brain slices were performed by decapitation of the P9/P10 mouse pups, removing skin and skull and immersing brains in slicing medium (Opti-MEM 1, […]). Brains were hemisected and hippocampi were isolated. Hippocampi were placed on the cutting disc of a McIlwain Tissue Chopper. […] hippocampal slices were chopped transversely. A number of 4 slices per hippocampus were placed on porous (0.4 μM) transparent membrane inserts (Millipore) and incubated for 1 h on ice in HBSS containing 10 mM glucose. Afterwards inserts were transferred to fresh 24-well plates containing 250-300 μl culture medium (50% MEM/EBSS, 25% horse serum, 25% CMF-HBSS, 25 mM glucose, 0.5% pen/strep). Slices were maintained at 37° C. and 5% CO2.
(§2) On DV15, brain slices were pretreated with SND derivatives test compounds and the reference 7,8DHF at various concentrations (between […]) for 30 min, followed by the addition of iodoacetic acid (IAA) at 250 μM for 110 min, when cell survival, MMP and toxicity were measured.
Cell survival was measured by the MTT assay. For the determination of mitochondrial membrane potential, treated organotypic brain slices were loaded with the mitochondrial fluorescent dye, tetramethylrhodamine methyl ester (TMRM) at a final concentration of 100 nM in PBS and incubated for 45 min at 37° C. The TMRM containing solution was aspirated and slices were transferred into new well plates containing the appropriate amount of PBS. Fluorescence was measured with a plate-reader (Cytation 5) using wavelengths of excitation and emission of 548 and 574 nm, respectively (area scan). Values were calculated as percent of control values (vehicle control). Toxicity of the treatment was measured by LDH. No toxicity was observed.

Arc, cFos, and Zif268 = test: Quantitative PCR of immediate-early genes linked to neuronal plasticity; format: cell-based, mouse; settings: 1 μM and 10 μM, 1 h and 2 h treatment
Method: The effect of Compound A or derivative thereof on the mRNA expression of genes related to plasticity (Arc, cFos, and Zif268) was determined as described. Cox (cytochrome oxidase) was used to evaluate if the derivative changes expression of mitochondrial genes.
Determination of gene expression was performed as previously described [Yang J, et al, Lactate promotes plasticity gene expression by potentiating NMDA signalling in neurons. Proc Natl Acad Sci USA. 2014. 111(33):12228-33]. Total RNA was isolated from cultured cells using Nucleospin RNA II kit (Macherey-Nagel) according to the manufacturer's instructions. The first strand of cDNA was synthesized from 100 ng of total RNA (60 min at 37° C. followed by 5 min at 95° C.) using a high-capacity RNA to cDNA reverse transcription system (Applied Biosystems). One-twentieth of the resulting cDNA was amplified by quantitative PCR (qPCR) with an ABI Prism 7900 system (Applied Biosystems). The PCR mix was composed of 6 ng of cDNA, 300 nM of forward and reverse primers in 10 μL of ix SYBR-Green PCR MasterMix (Applied Biosystems). Primer sequences were designed using Primer Express 3.0 software (Applied Biosystems) and oligonucleotides were synthesized by Microsynth.

[2] = tested on: organotypic hippocampal brain slices with IAA lesion; test: Organotypic brain slices, iodoacetic acid injury: mitochondrial membrane potential (TMRM); format: cell-based, mouse; settings: SND118 10 and 30 μM; SND124 30 μM; IAA 250 μM for 110 min
Method: as §1, §2
Cell survival was measured by the MTT assay. […] Fluorescence was measured with a plate-reader (Cytation 5) using wavelengths of excitation and emission of 548 and 574 nm, respectively (area scan). Values were calculated as percent of control values (vehicle control). Toxicity of the treatment was measured by LDH. […]

[3] = Metabolic stability in human plasma; format: in vitro ADME; settings: 1 μM
Method: The compounds were incubated with plasma, and the collected samples were analyzed by UPLC/HR-MS to measure stability of the compounds.
Sample type: plasma; Species: CD1-mouse (male), human (mixed gender); Time points: 0, 20, 40, 60, 120 min;
Spiking solvent: 50% DMSO ( 1/100 to incubation); Quenching solvent: 2-fold volume of 100% ACN; Control: propanthelin bromide (human, mouse)
The study compounds were incubated with plasma as specified above. The collected samples were stored at −20 C until thawed at room temperature, centrifuged and analyzed using UPLC/PDA with high resolution mass spectrometry (QE-Orbitrap-MS on DDI mode) to monitor substrate depletion and metabolite formation. The analytical method was optimised by using the parent compounds for optimum chromatographic properties (peak shape and retention) and mass spectrometric ionisation. Disappearance was based on relative LC/MS peak areas (0 min=100%) and will be used to calculate half-lives.

[4] = tested on: cortical neurons with MPP+ lesion; test: MPP+ induced apoptosis in cortical neurons (YO-PRO-1); format: cell-based, mouse; settings: 0.5 and 1 μM, 24 h MPP+ lesion
Method: Mouse cortical neurons were prepared as described. At DIV8 cells were treated with the test and control MK801 compounds for 1 h, before the addition of MPP+(Sigma, D048) at a final concentration of 100-200 μM. The experiment was carried out with n=6 technical replicates per condition, vehicle and MPP+ alone controls were included. After 8 h determination of ROS was conducted and after 24 h of MPP+ lesion on DIV9 cells were subject to the apoptosis measurement. Apoptosis was determined using YO-PRO™-1 Iodide (Invitrogen; Y3603). Part of supernatant of the cultivated cells was removed and 10 μL of a 50 μM YO-PRO 1 solution in PBS is added to the remaining 90 μL to result in a final concentration of 5 μM YO-PRO 1 in well. Incubation for 15 min in the incubator at 37° C. was performed (light protected) followed by discarding the supernatant. 140 μL PBS was added to each well and the fluorescence was measured using a plate-reader (Cytation 5, BioTek) at excitation wavelength 485 nm to Emission wavelength 535 nm.

[5] = Metabolic stability in human intestine microsomes; format: in vitro ADME; settings: both sexes, pooled intestine microsomes, pH 7.4, intestinal microsomes, 0.5 mg/ml protein, read-out: T1/2 IM human
Method: Sample type: pooled liver or intestine microsomes; Species: CD1-mouse (male), human (mixed gender) Time points: 0, 10, 20, 40, 60 min cofactors, and negative control;
Protein content: 0.5 mg/ml: Replicates: 2 with cofactors, 1 without cofactors; Cofactors: NADPH (1 mM)+UDPGA (1 mM)+15 μg/ml alamethicin Buffer: 0.1 M phosphate buffer pH 7.4, 2 mM MgCl2; Spiking solvent: 50% DMSO ( 1/100 to incubation); Quenching solvent: 2-fold volume of 75% ACN, Control: midazolam disappearance rate
The study compounds were incubated with liver or intestine microsomes as specified above. The collected samples were stored at −20 C until thawed at room temperature, centrifuged and analyzed as presented below.
The samples were analysed by UPLC/HR-MS (with data dependent MS/MS mode) to monitor substrate depletion (and later optionally metabolite formation). The analytical method was optimised by using the parent compound for optimum chromatographic properties (peak shape and retention) and mass spectrometric ionisation. Disappearance rate of the study compound was estimated based on relative LC/MS peak areas (o min marked as 100%), and was used to calculate in vitro half-life and clearance (and in vivo extrapolation of hepatic clearance).

SMILES: O=c1cc(-c2ccc(CCCC[P+](c3ccccc3)(c3ccccc3)c3ccccc3)cc2)oc2c(O)c(O)ccc12 [SND118, 4-[4-(7,8-dihydroxy-4-oxo-chromen-2-yl)phenyl]butyltriphenylphosphonium bromide]
- cell survival upon IAA lesion (MTT) [1]: statistically increase cell survival
- mRNA expression of genes related to plasticity (Arc, cFos, and Zif268) (Arc, cFos, and Zif268): increased
- mitochondria function (MMP, TMRM) after IAA lesion [2]: rescued mitochondria function
- T1/2 plasma Human [3]: 789 min
- apoptosis induced by MPP+ (YO-PRO-1) [4]: significantly inhibited apoptosis
- half-life at 1 μM [5]: 30.8 min

Reference: patent publication US20220411448A1, “CHROMENE-4-ONE DERIVATIVES AS BRAIN-DERIVED NEUROTROPHIC FACTOR (BDNF) MIMETICS” (FLORATEK PHARMA AG, priority 2019, published 2022)
